Reference: US4632926A, “Quinazolinone derivatives which are active against coccidiosis” (priority 1982, dated 1986)
“Also recorded” adds a separate entry of the source.

Experiments:
coccidia = details: cited from earlier work
Eimeria tenella = assay: Coccidiostatic activity in vivo against Eimeria tenella (lesions, % control of the infection); design: species or system Eimeria tenella (in Ranger pullets)
Procedure: (§1) Groups of 5 one-week-old Ranger pullets were infected each with a mixture of 5500 sporulated oocysts of Eimeria tenella and with 5000 sporulated oocysts of Eimeria acervulina.
(§2) The compound being tested was administered at the preselected dose in admixture with a poultry-feed (LD5) poor in vitamin K and containing no other additive.
(§3) The pullets were fed ad libitum with a fodder so prepared, beginning from 1 day prior to the infestation and going on for further 5 days.
(§4) As a check, there were used non-infested non-treated chickens and infested non-treated chickens.
(§5) The evaluation of the activity on Eimeria tenella was accomplished by ascertaining the presence of lesions, if any, 5 days after the infection, while the activity on Eimeria acervulina was evaluated by ascertaining the presence of oocysts, if if any, in the excrements 5 days after the infection.
(§6) The above compounds were tested for anticoccidial activity against E. tenella and E. acervulina according to the procedure hereabove described.
(§7) The activity against E. tenella was expressed as percent control of the infection at the considered dose, while the activity against E. acervulina was expressed on the basis of the presence, if any, of oocysts in the excrements and was rated as follows: […]

Eimeria acervulina = assay: Coccidiostatic activity in vivo against Eimeria acervulina (presence of oocysts in the excrements); design: species or system Eimeria acervulina (in Ranger pullets); key to E. acervulina (oocysts): A: absent; M: minimal present; P: present
Procedure: as §1, §2, §3, §4, §5, §6, §7

chickens [1] = assay: Toxicity phenomena in chickens fed with the compound in poultry-feed; format: in vivo
[2] = Toxicity towards poultry, LD50; details: chicken, in vivo
poultry = details: background; cited from earlier work
chickens [3] = details: poultry; cited from earlier work

O=C(C[C@H]1NCCC[C@@H]1O)Cn1cnc2cc(Br)c(Cl)cc2c1=O (relative stereo) [trans-isomer]
activity of trans-isomer compared with cis isomer (coccidia; trans versus cis isomer in the piperidine ring, Barringer et al. 1973): higher activity than the corresponding cis isomer

O=c1c2cc(Cl)c(Br)cc2ncn1CC(CC1NCCCC1O)=NO (stereo not shown) [Compound A, reference compound]
E. tenella (% control) (Eimeria tenella; 3.125 ppm in feed): 0 % control | E. tenella (% control) (Eimeria tenella; 6.25 ppm in feed): 0 % control | E. tenella (% control) (Eimeria tenella; 12.5 ppm in feed): 40 % control | E. tenella (% control) (Eimeria tenella; 25 ppm in feed): 100 % control | E. acervulina (oocysts) (Eimeria acervulina; 3.125 ppm in feed): P | E. acervulina (oocysts) (Eimeria acervulina; 6.25 ppm in feed): P | E. acervulina (oocysts) (Eimeria acervulina; 12.5 ppm in feed): P | E. acervulina (oocysts) (Eimeria acervulina; 25 ppm in feed): M

NN=C(CC1NCCCC1O)Cn1cnc2cc(Br)c(Cl)cc2c1=O (stereo not shown) [Compound No. 1, 6-chloro-7-bromo-3-[3-(3-hydroxy-2-piperidyl)-acetonyl]-(3H)-quinazolin-4-one hydrazone]
E. tenella (% control) (Eimeria tenella; 3.125 ppm in feed): 100 % control | E. tenella (% control) (Eimeria tenella; 6.25 ppm in feed): 100 % control | E. tenella (% control) (Eimeria tenella; 12.5 ppm in feed): 100 % control | E. tenella (% control) (Eimeria tenella; 25 ppm in feed): 100 % control | E. acervulina (oocysts) (Eimeria acervulina; 3.125 ppm in feed): M | E. acervulina (oocysts) (Eimeria acervulina; 6.25 ppm in feed): A | E. acervulina (oocysts) (Eimeria acervulina; 12.5 ppm in feed): A | E. acervulina (oocysts) (Eimeria acervulina; 25 ppm in feed): A

CCNN=C(CC1NCCCC1OC)Cn1cnc2cc(Br)c(Cl)cc2c1=O (stereo not shown) [Compound No. 2, 6-chloro-7-bromo-3-[3-(3-methoxy-2-piperidyl)-acetonyl]-(3H)-quinazolin-4-one ethylhydrazone]
E. tenella (% control) (Eimeria tenella; 6.25 ppm in feed): 100 % control | E. tenella (% control) (Eimeria tenella; 12.5 ppm in feed): 100 % control | E. tenella (% control) (Eimeria tenella; 25 ppm in feed): 100 % control | activity against E. tenella, result in words (Eimeria tenella; dose of 12.5 ppm): full activity | E. acervulina (oocysts) (Eimeria acervulina; 6.25 ppm in feed): P | E. acervulina (oocysts) (Eimeria acervulina; 12.5 ppm in feed): A | E. acervulina (oocysts) (Eimeria acervulina; 25 ppm in feed): A | activity against E. acervulina, result in words (Eimeria acervulina; dose of 6.25 ppm): complete activity | toxicity phenomena in chickens (chickens [1]; 100 ppm in poultry-feed along the duration of the activity test): No toxicity phenomena | LD50 [2]: ~100 mg/kg

O=C(CC1NCCCC1O)Cn1cnc2cc(Br)c(Cl)cc2c1=O (stereo not shown) [Halofuginone]
toxicity for chickens (poultry): very toxic for chickens | LD50 (chickens [3]): 17.6 mg/Kg body weight | anticoccidial activity (coccidia; background, poultry, even at very low doses (practical dose 3 ppm in feed)): particularly active against coccidiosis in poultry; also recorded: high anticoccidial activity even at very low doses | toxicity phenomena in chickens (chickens [1]; about 38 ppm in the poultry-feed): show phenomena of toxicity
